≈ marks a conversion by molar mass, not a printed value. Calls of active or inactive are those of the source. No cut-off for these calls is given here. Bridge positions count the residues as written; N and C are the ends. Square brackets hold non-standard residues; d marks the D form. Peptide text beside a SMILES is read from it. * marks the point of attachment. X1 = CC[C@H](C)CCCCC(=O)*; βNA = c1ccc2cc(N*)ccc2c1; Dab = NCC[C@H](N)C(=O)O
How the values were obtained:
Escherichia coli [1] = assay: Antibacterial activity against Escherichia coli ATCC 25922 incubated for 24 hrs by serial dilution method; assay type: functional; settings: ATCC 25922, 24 h
Escherichia coli [2] = assay: Potentiation of clarithromycin-induced antibacterial activity against Escherichia coli ATCC 25922 assessed as clarithromycin MIC at 12.5 ug/ml incubated for 24 hrs by microtiter plate reader analysis (reference value: 64 microg/ml); assay type: functional; settings: ATCC 25922, 24 h
Escherichia coli [3] = assay: Potentiation of clarithromycin-induced antibacterial activity against Escherichia coli ATCC 25922 assessed as fold reduction in clarithromycin MIC at 12.5 ug/ml incubated for 24 hrs in presence of clarithromycin; assay type: functional
[4] = test system: Escherichia coli ATCC 25922; assay: Induction of outer membrane permeabilization/inhibition of AcrAB-TolC efflux pump in Escherichia coli ATCC 25922 assessed as increase in NPN uptake at 1/32 to 1/2 times MIC incubated for 10 mins in dark by fluorescence assay
Escherichia coli [5] = assay: Induction of inner membrane permeabilization in Escherichia coli ATCC 25922 assessed as increase in propidium iodide uptake at 1/32 to 1/2 times MIC by PI staining based flow cytometric analysis; assay type: organism-based
Pseudomonas aeruginosa = assay: Potentiation of levofloxacin-induced antibacterial activity against Pseudomonas aeruginosa assessed as concentration required to decrease levofloxacin MIC by 8 fold in presence of levofloxacin; assay type: functional; settings: read-out: MEC
Escherichia coli [6] = assay: Potentiation of calrithromycin-induced antibacterial activity against Escherichia coli ATCC 25922 assessed as clarithromycin MIC at 50 ug/ml incubated for 24 hrs by microtiter plate reader analysis (reference value: 64 microg/ml); assay type: functional; settings: ATCC 25922, 24 h
Escherichia coli [7] = assay: Potentiation of clarithromycin-induced antibacterial activity against Escherichia coli ATCC 25922 assessed as fold reduction in clarithromycin MIC at 50 ug/ml incubated for 24 hrs in presence of clarithromycin; assay type: functional
[8] = test system: Escherichia coli ATCC 25922; assay: Induction of outer membrane permeabilization/inhibition of AcrAB-TolC efflux pump in Escherichia coli ATCC 25922 assessed as increase in NPN uptake incubated for 10 mins in dark by fluorescence assay
[9] = test system: Escherichia coli ATCC 25922; assay: Inhibition of efflux pump in CCCP-pretreated Escherichia coli ATCC 25922 assessed as […] by measuring decrease in fluorescence intensity pre-incubated for 5 mins followed by glucose addition by Hoechst 33342 staining based fluorescence assay

Row | SMILES | MIC (Escherichia coli [1]) [µg/mL] | MIC (Escherichia coli [2]) [µg/mL] | fold change (FC) (Escherichia coli [3]) | other results
1 | NCC[C@H](N)CNC(CCc1ccccc1)CCc1ccccc1 | 100 (≈ 307 µM) | 16 | 4 | 
2 | CN(C(=O)[C@@H](N)CCCN)C(Cc1ccccc1)Cc1ccccc1 | > 100 | 32 | 2 | 
3 | NCCC[C@H](N)C(=O)NC(CCc1ccccc1)CCc1ccccc1 | > 100 | 16 | 4 | 
4 | N=C(N)NCCC[C@H](N)C(=O)NC(CCc1ccccc1)CCc1ccccc1 | > 100 | 32 | 2 | 
5 | NCCC[C@@H](N)C(=O)NC(CCc1ccccc1)CCc1ccccc1 | > 100 | 32 | 2 | 
6 | CC[C@H](C)CCCCC(=O)N[C@@H](CCN)C(=O)N[C@H](C(=O)N[C@@H](CCN)C(=O)N[C@H]1CCNC(=O)[C@H]([C@@H](C)O)NC(=O)[C@H](CCN)NC(=O)[C@H](CCN)NC(=O)[C@H](CC(C)C)NC(=O)[C@@H](Cc2ccccc2)NC(=O)[C@H](CCN)NC1=O)[C@@H](C)O (X1-[Dab]T[Dab][Dab][Dab][dF]L[Dab][Dab]T; lactam 4-C) | 1.56 (≈ 1.3 µM) |  |  | Activity [4]: Active; Activity (Escherichia coli [5]): Active
7 | NCCC[C@H](NC(=O)[C@@H](N)Cc1ccccc1)C(=O)Nc1ccc2ccccc2c1 |  |  |  | minimal effective concentration (Pseudomonas aeruginosa): 5 µg/mL
8 | NC[C@@H](N)CCNC(CCc1ccccc1)CCc1ccccc1 | 100 (≈ 307 µM) | 32 | 2 | 
9 | CN(C(=O)[C@@H](N)CCCN)C(CCc1ccccc1)CCc1ccccc1 | > 100 | 32 | 2 | 
10 | N=C(N)NCCC[C@H](NC(=O)[C@@H](N)Cc1ccccc1)C(=O)Nc1ccc2ccccc2c1 [PABETAN] (H-Phe-Arg-βNA) | > 100 |  |  | MIC (Escherichia coli [6]): 16 µg/mL; fold change (FC) (Escherichia coli [7]): 4; minimal effective concentration (Pseudomonas aeruginosa): 10 µg/mL
11 | NCCC[C@@H](N)C(=O)N[C@H](CCc1ccccc1)CSc1ccc(Cl)cc1 |  |  |  | minimal effective concentration (Pseudomonas aeruginosa): 1.25 µg/mL
12 | NC[C@@H](N)CCCNC(CCc1ccccc1)CCc1ccccc1 | 25 (≈ 73.6 µM) | 4 | 16 | 
13 | NCCC[C@H](N)CNC(CCc1ccccc1)CCc1ccccc1 | 25 (≈ 73.6 µM) | 8 | 8 | 
14 | CC[C@H]1OC(=O)[C@H](C)[C@@H](O[C@H]2C[C@@](C)(OC)[C@@H](O)[C@H](C)O2)[C@H](C)[C@@H](O[C@@H]2O[C@H](C)C[C@H](N(C)C)[C@H]2O)[C@](C)(OC)C[C@@H](C)C(=O)[C@H](C)[C@@H](O)[C@]1(C)O [CLARITHROMYCIN] | 64 (≈ 85.6 µM) |  |  | 
15 | NC[C@@H](N)CC(=O)NC(CCc1ccccc1)CCc1ccccc1 | 200 (≈ 589 µM) | 64 | 1 | 
16 | NCC[C@H](N)CCNC(CCc1ccccc1)CCc1ccccc1 | 100 (≈ 295 µM) | 2 | 32 | Activity [8]: Dose-dependent effect; Activity (Escherichia coli [5]): inactive; inhibition [9]: Dose-dependent effect
17 | NCC[C@H](N)CC(=O)NC(CCc1ccccc1)CCc1ccccc1 | 100 (≈ 283 µM) | 4 | 16 | 
18 | NCC[C@H](N)C(=O)NC(CCc1ccccc1)CCc1ccccc1 | 100 (≈ 295 µM) | 32 | 2 | 
19 | NCCC[C@@H](N)C(=O)N[C@H](CCc1ccccc1)COc1ccc(Cl)cc1 |  |  |  | minimal effective concentration (Pseudomonas aeruginosa): 5 µg/mL
20 | NCCC[C@H](N)C(=O)NC(Cc1ccccc1)Cc1ccccc1 | > 100 | 32 | 2 | 
21 | NCCC[C@H](N)C(=O)NC(c1ccccc1)c1ccccc1 | > 100 | 64 | 1 | 
22 | COc1ccc(CN2CCN(C(CCc3ccccc3)CCc3ccccc3)CC2)cc1 | > 100 | 64 | 1 | 
23 | CNCCC[C@H](N)C(=O)NC(CCc1ccccc1)CCc1ccccc1 | 100 (≈ 272 µM) | 64 | 1 | 
24 | CN(C(=O)[C@@H](N)CCCN)C(c1ccccc1)c1ccccc1 | > 100 | 32 | 2 | 
25 | NCCC[C@@H](N)C(=O)N[C@H](CCc1ccccc1)C(=O)Nc1cnc2ccccc2c1 |  |  |  | minimal effective concentration (Pseudomonas aeruginosa): 10 µg/mL
26 | NCCC[C@@H](N)C(=O)N[C@H](CCc1ccccc1)C(=O)Nc1ncc(C(=O)Nc2cnc3ccccc3c2)o1 |  |  |  | minimal effective concentration (Pseudomonas aeruginosa): 5 µg/mL
27 | CN1CCN(C(CCc2ccccc2)CCc2ccccc2)CC1 | > 100 | 64 | 1 | 
28 | CN(C)CCC[C@H](N)C(=O)NC(CCc1ccccc1)CCc1ccccc1 | > 100 | 64 | 1 | 
29 | NC[C@@H](N)CCC(=O)NC(CCc1ccccc1)CCc1ccccc1 | 100 (≈ 283 µM) | 32 | 2 | 
